Assay results from patent US6878748B2, “Fluorinated cycloalkyl-derivatized benzoylguanidines, process for their preparation, their uses as medicament, and medicament containing them” (Aventis Pharma Deutschland GmbH, priority 2002, dated 2005).

Legend:
human NHE-1 = molecular target: T1, human NHE-1 (Homo sapiens, UniProt P19634); test: FLIPR assay for NHE-1 inhibition by measurement of the recovery in pHi in transfected cell lines; assay type: cell-based; conditions: transfected LAP-1 cell line expressing human NHE-1, BCECF fluorescence, read-out: NHE1 inhibition IC50
T1 construct: expressed in transfected cells; host or cells: LAP-1 cells (parental line has no endogenous NHE activity), G418 selection
T1 sequence (P19634 whole entry): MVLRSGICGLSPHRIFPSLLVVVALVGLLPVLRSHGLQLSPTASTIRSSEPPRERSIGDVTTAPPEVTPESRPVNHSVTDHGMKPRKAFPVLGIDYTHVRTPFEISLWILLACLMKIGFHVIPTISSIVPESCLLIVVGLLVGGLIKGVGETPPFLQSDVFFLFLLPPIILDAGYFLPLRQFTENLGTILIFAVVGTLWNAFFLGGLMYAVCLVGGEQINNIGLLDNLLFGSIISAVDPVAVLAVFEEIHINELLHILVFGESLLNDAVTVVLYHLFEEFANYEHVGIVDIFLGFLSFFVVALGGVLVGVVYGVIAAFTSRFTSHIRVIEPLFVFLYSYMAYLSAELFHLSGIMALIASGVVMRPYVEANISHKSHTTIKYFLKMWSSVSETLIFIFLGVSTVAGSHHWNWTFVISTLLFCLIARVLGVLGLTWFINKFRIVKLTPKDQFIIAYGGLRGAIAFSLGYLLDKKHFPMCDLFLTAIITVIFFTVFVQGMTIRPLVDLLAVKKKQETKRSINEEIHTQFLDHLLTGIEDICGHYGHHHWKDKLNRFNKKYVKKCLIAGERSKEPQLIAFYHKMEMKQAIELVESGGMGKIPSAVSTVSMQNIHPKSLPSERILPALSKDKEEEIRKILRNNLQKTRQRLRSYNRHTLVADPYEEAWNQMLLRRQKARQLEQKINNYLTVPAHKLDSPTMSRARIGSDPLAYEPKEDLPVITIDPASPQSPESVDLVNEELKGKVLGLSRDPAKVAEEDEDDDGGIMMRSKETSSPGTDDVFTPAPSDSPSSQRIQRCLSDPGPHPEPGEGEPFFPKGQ
Protocol: The NHE-1 inhibition was determined as follows:
FLIPR assay for determining NHE-1 inhibitors by measurement of the recovery in pHi in transfected cell lines which express human NHE-1
The assay is carried out in an FLIPR (fluorescent imaging plate reader) with black-walled 96-well microtiter plates with clear bases.
(The growth medium for the transfected cells (Iscove +10% fetal calf serum) additionally contains G418 as selection antibiotic in order to ensure the presence of the transfected sequences.)
The actual assay starts with the removal of the growth medium and addition of 100 μl of loading buffer per well (5 μM BCECF-AM [2′,7′-bis(carboxyethyl)-5-(and -6)-carboxyfluorescein, acetoxymethyl ester] in 20 mM NH4Cl, 115 mM choline chloride, 1 mM MgCl2, 1 mM CaCl2, 5 mM KCl, 20 mM HEPES, 5 mM glucose; pH 7.4 [adjusted with KOH]). The cells are then incubated at 37° C. for 20 minutes. This incubation leads to loading of the cells with the fluorescent dye whose fluorescence intensity depends on pHi, and with NH4Cl, which makes the cells slightly alkaline. [The nonfluorescent dye precursor BCECF-AM is, -as ester, membrane-permeable. The actual dye BCECF, which is not membrane-permeable, is liberated inside cells by esterases.] […]

Structure (SMILES): [H]/N=C(\N)NC(=O)c1cc(S(C)(=O)=O)c(OC2CC(F)(F)C2)cc1C [Example 1, N-[4-(3,3-Difluorocyclobutoxy)-5-methanesulfonyl-2-methylbenzoyl]guanidine]
- IC50 (human NHE-1): 5.9 nM
- melting point: 273 °C (dec.)
